Test results as given in PubChem BioAssay AID1259407 (Chemical Carcinogenesis Research Information System (CCRIS), 2018).
Active and inactive are the calls of the source. No rule for the calls is given here.

Tested on: CCRIS mutagenicity, Ames/micronucleus/aberration tests
Assay: CCRIS mutagenicity studies

Measured: mutagenic call

CCN(N=O)c1ccccc1
inactive: Test System: AMES SALMONELLA TYPHIMURIUM, Strain/Indicator: TA1537, Metabolic Activation: HAMSTER, LIVER, S-9, AROCLOR 1254, Method: PREINCUBATION inactive; negative | Test System: AMES SALMONELLA TYPHIMURIUM, Strain/Indicator: TA1537, Metabolic Activation: HAMSTER, LIVER, S-9, AROCLOR 1254, Method: STANDARD PLATE inactive; negative | Test System: AMES SALMONELLA TYPHIMURIUM, Strain/Indicator: TA1537, Metabolic Activation: HAMSTER, LIVER, S-9, Method: PREINCUBATION inactive; negative | Test System: AMES SALMONELLA TYPHIMURIUM, Strain/Indicator: TA1537, Metabolic Activation: HAMSTER, LIVER, S-9, Method: STANDARD PLATE inactive; negative | Test System: AMES SALMONELLA TYPHIMURIUM, Strain/Indicator: TA1537, Metabolic Activation: MOUSE, LIVER, S-9, AROCLOR 1254, Method: PREINCUBATION inactive; negative | Test System: AMES SALMONELLA TYPHIMURIUM, Strain/Indicator: TA1537, Metabolic Activation: MOUSE, LIVER, S-9, AROCLOR 1254, Method: STANDARD PLATE inactive; negative | Test System: AMES SALMONELLA TYPHIMURIUM, Strain/Indicator: TA1537, Metabolic Activation: MOUSE, LIVER, S-9, Method: PREINCUBATION inactive; negative | Test System: AMES SALMONELLA TYPHIMURIUM, Strain/Indicator: TA1537, Metabolic Activation: MOUSE, LIVER, S-9, Method: STANDARD PLATE inactive; negative | Test System: AMES SALMONELLA TYPHIMURIUM, Strain/Indicator: TA1537, Metabolic Activation: NONE, Method: PREINCUBATION inactive; negative | Test System: AMES SALMONELLA TYPHIMURIUM, Strain/Indicator: TA1537, Metabolic Activation: NONE, Method: STANDARD PLATE inactive; negative | Test System: AMES SALMONELLA TYPHIMURIUM, Strain/Indicator: TA1537, Metabolic Activation: RAT, LIVER, S-9, AROCLOR 1254, Method: PREINCUBATION inactive; negative | Test System: AMES SALMONELLA TYPHIMURIUM, Strain/Indicator: TA1537, Metabolic Activation: RAT, LIVER, S-9, AROCLOR 1254, Method: STANDARD PLATE inactive; negative | Test System: AMES SALMONELLA TYPHIMURIUM, Strain/Indicator: TA1537, Metabolic Activation: RAT, LIVER, S-9, Method: PREINCUBATION inactive; negative | Test System: AMES SALMONELLA TYPHIMURIUM, Strain/Indicator: TA1537, Metabolic Activation: RAT, LIVER, S-9, Method: STANDARD PLATE inactive; negative | Test System: AMES SALMONELLA TYPHIMURIUM, Strain/Indicator: TA1538, Metabolic Activation: HAMSTER, LIVER, S-9, AROCLOR 1254, Method: PREINCUBATION inactive; negative | Test System: AMES SALMONELLA TYPHIMURIUM, Strain/Indicator: TA1538, Metabolic Activation: HAMSTER, LIVER, S-9, AROCLOR 1254, Method: STANDARD PLATE inactive; negative | Test System: AMES SALMONELLA TYPHIMURIUM, Strain/Indicator: TA1538, Metabolic Activation: HAMSTER, LIVER, S-9, Method: PREINCUBATION inactive; negative | Test System: AMES SALMONELLA TYPHIMURIUM, Strain/Indicator: TA1538, Metabolic Activation: HAMSTER, LIVER, S-9, Method: STANDARD PLATE inactive; negative | Test System: AMES SALMONELLA TYPHIMURIUM, Strain/Indicator: TA1538, Metabolic Activation: MOUSE, LIVER, S-9, AROCLOR 1254, Method: PREINCUBATION inactive; negative | Test System: AMES SALMONELLA TYPHIMURIUM, Strain/Indicator: TA1538, Metabolic Activation: MOUSE, LIVER, S-9, AROCLOR 1254, Method: STANDARD PLATE inactive; negative | Test System: AMES SALMONELLA TYPHIMURIUM, Strain/Indicator: TA1538, Metabolic Activation: MOUSE, LIVER, S-9, Method: PREINCUBATION inactive; negative | Test System: AMES SALMONELLA TYPHIMURIUM, Strain/Indicator: TA1538, Metabolic Activation: MOUSE, LIVER, S-9, Method: STANDARD PLATE inactive; negative | Test System: AMES SALMONELLA TYPHIMURIUM, Strain/Indicator: TA1538, Metabolic Activation: NONE, Method: PREINCUBATION inactive; negative | Test System: AMES SALMONELLA TYPHIMURIUM, Strain/Indicator: TA1538, Metabolic Activation: NONE, Method: STANDARD PLATE inactive; negative | Test System: AMES SALMONELLA TYPHIMURIUM, Strain/Indicator: TA1538, Metabolic Activation: RAT, LIVER, S-9, AROCLOR 1254, Method: PREINCUBATION inactive; negative | Test System: AMES SALMONELLA TYPHIMURIUM, Strain/Indicator: TA1538, Metabolic Activation: RAT, LIVER, S-9, AROCLOR 1254, Method: STANDARD PLATE inactive; negative | Test System: AMES SALMONELLA TYPHIMURIUM, Strain/Indicator: TA1538, Metabolic Activation: RAT, LIVER, S-9, Method: PREINCUBATION inactive; negative | Test System: AMES SALMONELLA TYPHIMURIUM, Strain/Indicator: TA1538, Metabolic Activation: RAT, LIVER, S-9, Method: STANDARD PLATE inactive; negative | Test System: E. COLI, Strain/Indicator: WP2 UVRA, Metabolic Activation: HAMSTER, LIVER, S-9, AROCLOR 1254, Method: PREINCUBATION inactive; negative | Test System: E. COLI, Strain/Indicator: WP2 UVRA, Metabolic Activation: HAMSTER, LIVER, S-9, AROCLOR 1254, Method: STANDARD PLATE inactive; negative | Test System: E. COLI, Strain/Indicator: WP2 UVRA, Metabolic Activation: HAMSTER, LIVER, S-9, Method: PREINCUBATION inactive; negative | Test System: E. COLI, Strain/Indicator: WP2 UVRA, Metabolic Activation: HAMSTER, LIVER, S-9, Method: STANDARD PLATE inactive; negative | Test System: E. COLI, Strain/Indicator: WP2 UVRA, Metabolic Activation: MOUSE, LIVER, S-9, AROCLOR 1254, Method: PREINCUBATION inactive; negative | Test System: E. COLI, Strain/Indicator: WP2 UVRA, Metabolic Activation: MOUSE, LIVER, S-9, AROCLOR 1254, Method: STANDARD PLATE inactive; negative | Test System: E. COLI, Strain/Indicator: WP2 UVRA, Metabolic Activation: MOUSE, LIVER, S-9, Method: PREINCUBATION inactive; negative | Test System: E. COLI, Strain/Indicator: WP2 UVRA, Metabolic Activation: MOUSE, LIVER, S-9, Method: STANDARD PLATE inactive; negative | Test System: E. COLI, Strain/Indicator: WP2 UVRA, Metabolic Activation: NONE, Method: PREINCUBATION inactive; negative | Test System: E. COLI, Strain/Indicator: WP2 UVRA, Metabolic Activation: NONE, Method: STANDARD PLATE inactive; negative | Test System: E. COLI, Strain/Indicator: WP2 UVRA, Metabolic Activation: RAT, LIVER, S-9, AROCLOR 1254, Method: PREINCUBATION inactive; negative | Test System: E. COLI, Strain/Indicator: WP2 UVRA, Metabolic Activation: RAT, LIVER, S-9, AROCLOR 1254, Method: STANDARD PLATE inactive; negative | Test System: E. COLI, Strain/Indicator: WP2 UVRA, Metabolic Activation: RAT, LIVER, S-9, Method: PREINCUBATION inactive; negative | Test System: E. COLI, Strain/Indicator: WP2 UVRA, Metabolic Activation: RAT, LIVER, S-9, Method: STANDARD PLATE inactive; negative
